Test results taken from US9493444B2 (Merck Patent GmbH, priority 2012, dated 2016).

Test system: Wnt pathway (TCF-dependent transcription in HEK293 luciferase reporter cell line with ER-DSH construct)
Test: Cellular assay for Wnt pathway activity (luciferase reporter)
Format: cell-based
Settings: Homo sapiens; Wnt pathway inhibition, HEK293 luciferase reporter cells (ER-DSH, TCF promoter), 24 hours incubation, estrogen-induced
Method in brief: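 Luminescent luciferase read-out after 24 h compound exposure at 1 nM to 30 μM, with TCF-driven transcription switched on by estrogen addition. IC50 values come from curve fits of data normalized against the vehicle-only control.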

Structure (SMILES)	IC50 [nM]
CC(=O)N(C)CCN(C)c1cncc(Oc2ccc(/C=C/c3ccccn3)cc2)n1 [Compound 145, N-Methyl-N-[2-(methyl-{6-[4-((E)-2-pyridin-2-yl-vinyl)-phenoxy]-pyrazin-2-yl}-amino)-ethyl]-acetamide]	< 200
CC(=O)N(C)CCN(C)c1cncc(Oc2ccc(-c3noc(C)n3)cc2)n1 [Compound 146, N-Methyl-N-[2-(methyl-{6-[4-(5-methyl-[1,2,4]oxadiazol-3-yl)-phenoxy]-pyrazin-2-yl}-amino)-ethyl]-acetamide]	200 to 1000
CC(=O)N(C)CCN(C)c1cncc(Oc2ccc(C(=O)c3ccccc3)cc2)n1 [Compound 147]	200 to 1000
CCc1ccc(C2=NN(C(=O)c3ccc(Oc4cncc(N(C)CCN(C)C(C)=O)n4)cc3)CCC2)cc1 [Compound 148, N-{2-[(6-{4-[3-(4-Ethyl-phenyl)-5,6-dihydro-4H-pyridazine-1-carbonyl]-phenoxy}-pyrazin-2-yl)-methyl-amino]-ethyl}-N-methyl-acetamide]	1000 to 10000
CC(=O)N(C)CCN(C)c1cncc(Oc2ccc(N3CCNCC3)cc2)n1 [Compound 149, N-Methyl-N-(2-{methyl-[6-(4-piperazin-1-yl-phenoxy)-pyrazin-2-yl]-amino}-ethyl)-acetamide]	1000 to 10000
CC(=O)N(C)CCN(C)c1cncc(Oc2ccc(-c3ccccc3S(C)(=O)=O)cc2)n1 [Compound 150, N-(2-{[6-(2′-Methane-sulfonyl-biphenyl-4-yloxy)-pyrazin-2-yl]-methyl-amino}-ethyl)-N-methyl-acetamide]	< 200
CC(=O)N(C)CCN(C)c1cncc(Oc2ccc(-c3ccc(=O)[nH]n3)cc2)n1 [Compound 151, N-Methyl-N-[2-(methyl-{6-[4-(6-oxo-1,6-dihydro-pyridazin-3-yl)-phenoxy]-pyrazin-2-yl}-amino)-ethyl]-acetamide]	200 to 1000
CC(=O)N(C)CCN(C)c1cncc(Oc2ccc(-c3ccc(F)cn3)cc2)n1 [Compound 152, N-[2-({6-[4-(5-Fluoro-pyridin-2-yl)-phenoxy]-pyrazin-2-yl}-methyl-amino)-ethyl]-N-methyl-acetamide]	< 200
CC(=O)N(C)CCSc1cncc(Oc2ccc(-c3ccc(C)cn3)cc2)n1 [Compound 153, N-Methyl-N-(2-{6-[4-(5-methyl-pyridin-2-yl)-phenoxy]-pyrazin-2-ylsulfanyl}-ethyl)-acetamide]	< 200
CC(=O)N(C)CCN(C)c1cncc(Oc2ccc3[nH]c(=O)oc3c2)n1 [Compound 154, N-Methyl-N-(2-{methyl-[6-(2-oxo-2,3-dihydro-benzooxazol-6-yloxy)-pyrazin-2-yl]-amino}-ethyl)-acetamide]	1000 to 10000
CC(=O)Oc1cnc(-c2ccc(Oc3cncc(N(C)CCN(C)C(C)=O)n3)cc2)nc1 [Compound 155, Acetic acid 2-[4-(6-{[2-(acetyl-methyl-amino)-ethyl]-methyl-amino}-pyrazin-2-yloxy)-phenyl]-pyrimidin-5-yl ester]	1000 to 10000
CN(CCC(N)=O)c1cncc(Oc2ccc(F)cc2)n1 [Compound 156, 3-{[6-(4-Fluoro-phenoxy)-pyrazin-2-yl]-methyl-amino}-propion-amide]	1000 to 10000
CC(=O)N(C)CCN(C)c1cncc(Oc2ccc(C(=O)c3ccco3)cc2)n1 [Compound 157, N-[2-({6-[4-(Furan-2-carbonyl)-phenoxy]-pyrazin-2-yl}-methyl-amino)-ethyl]-N-methyl-acetamide]	< 200
CC(=O)N(C)CCN(C)c1cncc(Oc2ccc(-c3nccs3)cc2)n1 [Compound 158, N-Methyl-N-(2-{methyl-[6-(4-thiazol-2-yl-phenoxy)-pyrazin-2-yl]-amino}-ethyl)-acetamide]	< 200
CC(=O)N(C)CCN(C)c1cncc(Oc2ccc(Cc3ncc(C(F)(F)F)cc3Cl)cc2)n1 [Compound 159, N-[2-({6-[4-(3-Chloro-5-trifluoro-methyl-pyridin-2-ylmethyl)-phenoxy]-pyrazin-2-yl}-methyl-amino)-ethyl]-N-methyl-acetamide]	200 to 1000
CC(=O)N(C)CCN(C)c1cncc(Oc2ccc(-c3cccc(C)n3)cc2)n1 [Compound 160, N-Methyl-N-[2-(methyl-{6-[4-(6-methyl-pyridin-2-yl)-phenoxy]-pyrazin-2-yl}-amino)-ethyl]-acetamide]	< 200
CC(=O)N(C)CCN(C)c1cncc(Oc2ccc(-c3ncccn3)cc2)n1 [Compound 161, N-Methyl-N-(2-{methyl-[6-(4-pyrimidin-2-yl-phenoxy)-pyrazin-2-yl]-amino}-ethyl)-acetamide]	200 to 1000
CC(=O)N(C)CCN(C)c1cncc(Oc2ccc(-c3ccc(C(F)(F)F)cn3)cc2)n1 [Compound 162, N-Methyl-N-[2-(methyl-{6-[4-(5-trifluoro-methyl-pyridin-2-yl)-phenoxy]-pyrazin-2-yl}-amino)-ethyl]-acetamide]	200 to 1000

Structure (SMILES)	IC50 [nM]
COc1ccc(-c2ccc(Oc3cncc(N(C)CCN(C)C(C)=O)n3)cc2)nc1 [Compound 163, N-[2-({6-[4-(5-Methoxy-pyridin-2-yl)-phenoxy]-pyrazin-2-yl}-methyl-amino)-ethyl]-N-methyl-acetamide]	< 200
CC(=O)N(C)CCN(C)c1cncc(Oc2ccc(-c3ncccc3N3CCOCC3)cc2)n1 [Compound 164, N-Methyl-N-[2-(methyl-{6-[4-(3-morpholin-4-yl-pyridin-2-yl)-phenoxy]-pyrazin-2-yl}-amino)-ethyl]-acetamide]	1000 to 10000
CC(=O)N(C)CCN(C)c1cncc(Oc2ccc(-c3ncc(O)cn3)cc2)n1 [Compound 165, N-[2-({6-[4-(5-Hydroxy-pyrimidin-2-yl)-phenoxy]-pyrazin-2-yl}-methyl-amino)-ethyl]-N-methyl-acetamide]	1000 to 10000
CC(=O)N(C)CCN(C)c1cncc(Oc2ccc(-c3cc4ccccc4cn3)cc2)n1 [Compound 166, N-(2-{[6-(4-Isoquinolin-3-yl-phenoxy)-pyrazin-2-yl]-methyl-amino}-ethyl)-N-methyl-acetamide]	200 to 1000
CCc1ccnc(-c2ccc(Oc3cncc(N(C)CCN(C)C(C)=O)n3)cc2)c1 [Compound 167, N-[2-({6-[4-(4-Ethyl-pyridin-2-yl)-phenoxy]-pyrazin-2-yl}-methyl-amino)-ethyl]-N-methyl-acetamide]	200 to 1000
CC(=O)N(CCN(c1cncc(Oc2ccc(F)cc2)n1)C(C)C)C(C)C [Compound 168, N-(2-{[6-(4-Fluoro-phenoxy)pyrazin-2-yl]-isopropyl-amino}-ethyl)-N-isopropyl-acetamide]	200 to 1000
CC(=O)N(CCSc1cncc(Oc2ccc(-c3ccc(C)cn3)cc2)n1)C(C)C [Compound 169, N-Isopropyl-N-(2-{6-[4-(5-methyl-pyridin-2-yl)-phenoxy]-pyrazin-2-ylsulfanyl}-ethyl)-acetamide]	< 200
CC(=O)N(C)CCN(C)c1cncc(Oc2ccc(-c3cccc(C(N)=O)n3)cc2)n1 [Compound 170, 6-[4-(6-{[2-(Acetyl-methyl-amino)-ethyl]-methyl-amino}-pyrazin-2-yloxy)-phenyl]-pyridine-2-carboxylic acid amide]	< 200
CC(=O)Nc1cccc(-c2ccc(Oc3cncc(N(C)CCN(C)C(C)=O)n3)cc2)n1 [Compound 171, N-[2-({6-[4-(6-Acetylamino-pyridin-2-yl)-phenoxy]-pyrazin-2-yl}-methyl-amino)-ethyl]-N-methyl-acetamide]	< 200
CC(=O)N(C)CCN(C)c1cncc(Oc2ccc(-c3cc(N)ccn3)cc2)n1 [Compound 172, N-[2-({6-[4-(4-Amino-pyridin-2-yl)-phenoxy]-pyrazin-2-yl}-methyl-amino)-ethyl]-N-methyl-acetamide]	200 to 1000
CC(=O)N(C)CCN(C)c1cncc(Oc2ccc(-c3cc(N4CCN(C)CC4)ccn3)cc2)n1 [Compound 173, N-Methyl-N-{2-[methyl-(6-{4-[4-(4-methyl-piperazin-1-yl)-pyridin-2-yl]-phenoxy}-pyrazin-2-yl)-amino]-ethyl}-acetamide]	1000 to 10000
CC(=O)N(C)CCN(C)c1cncc(Oc2ccc(-c3cc(C)cc[n+]3[O-])cc2)n1 [Compound 174, N-Methyl-N-[2-(methyl-{6-[4-(4-methyl-1-oxy-pyridin-2-yl)-phenoxy]-pyrazin-2-yl}-amino)-ethyl]-acetamide]	200 to 1000
CC(=O)N(C)CCN(C)c1cncc(Oc2ccc(-c3ccc(N4CCOCC4)nc3)cc2)n1 [Compound 175, N-Methyl-N-[2-(methyl-{6-[4-(6-morpholin-4-yl-pyridin-3-yl)-phenoxy]-pyrazin-2-yl}-amino)-ethyl]-acetamide]	< 200
CC(=O)OCc1ccc(Oc2cncc(N(C)CCN(C)C(C)=O)n2)cc1 [Compound 176, Acetic acid 4-(6-{[2-(acetyl-methyl-amino)-ethyl]-methyl-amino}-pyrazin-2-yloxy)-benzyl ester]	< 200
CC(=O)N(C)CCN(C)c1cncc(Oc2ccc(-c3cccnc3N)cc2)n1 [Compound 177, N-[2-({6-[4-(2-Amino-pyridin-3-yl)-phenoxy]-pyrazin-2-yl}-methyl-amino)-ethyl]-N-methyl-acetamide]	< 200
CC(=O)N(C)CCN(C)c1cncc(Oc2ccc(C3CCC(=O)CC3)cc2)n1 [Compound 178, N-Methyl-N-[2-(methyl-{6-[4-(4-oxo-cyclohexyl)-phenoxy]-pyrazin-2-yl}-amino)-ethyl]-acetamide]	< 200
CC(=O)N(C)CCN(C)c1cncc(Oc2ccc(C3CCC(C)CO3)cc2)n1 (stereo not drawn) [Compound 179, N-Methyl-N-[2-(methyl-{6-[4-(5-methyl-tetrahydro-pyran-2-yl)-phenoxy]-pyrazin-2-yl}-amino)-ethyl]-acetamide]	< 200
CCOc1ccc(-c2ccc(Oc3cncc(N(C)CCN(C)C(C)=O)n3)cc2)c(F)c1F [Compound 180, N-(2-{[6-(4′-Ethoxy-2′,3′-difluoro-biphenyl-4-yloxy)-pyrazin-2-yl]-methyl-amino}-ethyl)-N-methyl-acetamide]	200 to 1000
